Assay results from ChEMBL document CHEMBL4033627, “Quest for steroidomimetics: Amino acids derived steroidal and nonsteroidal architectures” (Eur J Med Chem, 2017).

What was measured:
MDA-MB-231 = test: Anticancer activity against human MDA-MB-231 cells after 24 hrs by MTT assay; format: functional, cell-based; details: MDA-MB-231, 24 h
MCF7 = test: Anticancer activity against human MCF7 cells after 24 hrs by MTT assay; format: functional, cell-based; details: MCF7, 24 h

## Cc1ccc(S(=O)(=O)N2Cc3ccccc3OC[C@@H]2Cc2ccc(O)cc2)cc1
MDA-MB-231
  IC50: 30 µM
MCF7
  IC50: 20 µM
